Experimental data: US4178443A, “Derivatives of 7 [-substituted oxyimins acetamido] cephalosporins” (Hoffmann-La Roche Inc., priority 1977, dated 1979)
Converted amounts (≈) assume the structure as drawn.

Experiments:
[1] = Toxicity (mice, 24 hour values); details: mouse, in vivo
Description: TOXICITY (mice, 24 hour values)

Proteus mirabilis [2] = experiment: Activity in vivo: survival of mice infected intraperitoneally with Proteus mirabilis; details: sc, 96 h; mice infected i.p. with Proteus mirabilis; compound s.c. one hour after infection; survival on 4th day; by interpolation; read-out: CD50 (dosage at which 50% of the mice survive)
Description: Groups of 10 mice are infected intraperitoneally with an aqueous suspension of Proteus mirabilis. One hour after the infection the test compound is administered subcutaneously. The number of surviving mice is determined on the 4th day. Various dosages of test compound are administered and the dosage at which 50% of the mice survice (CD50, mg/kg) is determined by interpolation.

Proteus vulgaris = experiment: Activity in vitro: Minimum Inhibitory Concentration; format: cell-based
Source text: (§1) Activity in vitro: Minimum Inhibitory Concentration (μg/ml)

Escherichia coli = experiment: as above; format: cell-based
Source text: as §1

Proteus mirabilis [3] = experiment: as above; format: cell-based
Source text: as §1

Proteus rettgeri = experiment: as above; format: cell-based; details: Providencia rettgeri
Source text: as §1

[4] = tested on: Staphylococcus aureus ATCC 6538; experiment: as above; format: cell-based; details: ATCC6538
Source text: as §1

[5] = tested on: Staphylococcus aureus Penicillin-resistant strain; experiment: as above; format: cell-based
Source text: as §1

Klebsiella pneumoniae = experiment: as above; format: cell-based
Source text: as §1

Haemophilus influenzae = experiment: as above; format: cell-based
Source text: as §1

[6] = Haemophilus influenzae strain 1
[7] = Haemophilus influenzae strain 2
[8] = Haemophilus influenzae strain 3
[9] = Haemophilus influenzae strain 4
[10] = Haemophilus influenzae strain 5
[11] = Haemophilus influenzae strain 6
[12] = Haemophilus influenzae strain 7

Row | Compound | LD50 at 24 h ([1]; iv, mice, 24 hour values) [mg/kg] | ED50 (Proteus mirabilis [2]) [mg/kg] | MIC (Proteus vulgaris) [µg/mL] | MIC (Escherichia coli; Escherichia coli strain 1) [µg/mL] | MIC (Escherichia coli; Escherichia coli strain 2) [µg/mL] | MIC (Proteus mirabilis [3]; Proteus mirabilis strain 1) [µg/mL] | MIC (Proteus mirabilis [3]; Proteus mirabilis strain 2) [µg/mL] | MIC (Proteus rettgeri) [µg/mL] | MIC [4] [µg/mL] | MIC [5] [µg/mL] | MIC (Klebsiella pneumoniae) [µg/mL] | MIC (Haemophilus influenzae; [6]) [µg/mL] | MIC (Haemophilus influenzae; [7]) [µg/mL] | MIC (Haemophilus influenzae; [8]) [µg/mL] | MIC (Haemophilus influenzae; [9]) [µg/mL] | MIC (Haemophilus influenzae; [10]) [µg/mL] | MIC (Haemophilus influenzae; [11]) [µg/mL] | MIC (Haemophilus influenzae; [12]) [µg/mL] | also measured
1 | Cn1c(SCC2=C(C(=O)O)N3C(=O)[C@@H](NC(=O)C(=NOCC(N)=O)c4ccco4)[C@H]3SC2)n[nH]c(=O)c1=O [Compound G, (7R)-7-[2-[(carbamoylmethoxy)imino]-2-(2-furyl)-acetamido]-3-[[(1,4,5,6-tetrahydro-4-methyl-5,6-dioxo-as-triazin-3-yl)thio]methyl]-3-cephem-4-carboxylic acid] | > 4000 | 0.8 | 1.2 (≈ 2.12 µM) | 0.31 (≈ 0.548 µM) | 5 (≈ 8.84 µM) | 5 (≈ 8.84 µM) | 10 (≈ 17.7 µM) | 0.63 (≈ 1.11 µM) | 1.2 (≈ 2.12 µM) | 1.2 (≈ 2.12 µM) | 2.5 (≈ 4.42 µM) | 5 (≈ 8.84 µM) | 0.63 (≈ 1.11 µM) | 0.31 (≈ 0.548 µM) | 0.63 (≈ 1.11 µM) | 0.31 (≈ 0.548 µM) | 0.63 (≈ 1.11 µM) | 0.63 (≈ 1.11 µM) | –
2 | CON=C(C(=O)N[C@@H]1C(=O)N2C(C(=O)O)=C(CSc3n[nH]c(=O)c(=O)n3C)CS[C@H]12)c1ccco1 [Compound D, (7R)-7-[2-(2-furyl)-2-(methoxyimino)acetamido]-3-[[(1,4,5,6-tetrahydro-4-methyl-5,6-dioxo-as-triazin-3-yl)thio]methyl]-3-cephem-4-carboxylic acid] | 500 to 1000 | 0.7 | 1.2 (≈ 2.3 µM) | 0.16 (≈ 0.306 µM) | 5 (≈ 9.57 µM) | 10 (≈ 19.1 µM) | 20 (≈ 38.3 µM) | 0.63 (≈ 1.21 µM) | 0.63 (≈ 1.21 µM) | 0.63 (≈ 1.21 µM) | 5 (≈ 9.57 µM) | 2.5 (≈ 4.78 µM) | 0.31 (≈ 0.593 µM) | 0.31 (≈ 0.593 µM) | 0.31 (≈ 0.593 µM) | 0.16 (≈ 0.306 µM) | 0.16 (≈ 0.306 µM) | 0.16 (≈ 0.306 µM) | LD50 at 24 h ([1]; po, mice, 24 hour values): > 5000 mg/kg; LD50 at 24 h ([1]; sc, mice, 24 hour values): > 4000 mg/kg
3 | CCn1nc(SCC2=C(C(=O)O)N3C(=O)[C@@H](NC(=O)C(=NOC)c4ccco4)[C@H]3SC2)[nH]c(=O)c1=O [Compound F] | – | 0.85 | 20 (≈ 37.3 µM) | 1.2 (≈ 2.24 µM) | 80 (≈ 149 µM) | 20 (≈ 37.3 µM) | 40 (≈ 74.6 µM) | 10 (≈ 18.6 µM) | 5 (≈ 9.32 µM) | 5 (≈ 9.32 µM) | 40 (≈ 74.6 µM) | 2.5 (≈ 4.66 µM) | 0.31 (≈ 0.578 µM) | 1.2 (≈ 2.24 µM) | 0.16 (≈ 0.298 µM) | 0.08 (≈ 0.149 µM) | 0.08 (≈ 0.149 µM) | 0.16 (≈ 0.298 µM) | LD50 at 24 h ([1]; iv): 1000 to 2000 mg/kg
